Here are results for 8 compounds from patent US20110105409A1, “Anticancer Compounds” (priority 2008, published 2011).

One data set concerns HT29. Kind of data set: SRB colorimetric cytotoxicity assay, HT29. Type of data set: cell-based, human. Conditions: for TGI / GI50: HT29, 72 hours treatment, SRB; for CC50 / GI50: Homo sapiens; for CC50: HT-29, 72 h, read-out: LC50; for GI50: HT-29. The text has this: (§1) The aim of this assay is to evaluate the in vitro cytostatic (ability to delay or arrest tumor cell growth) or cytotoxic (ability to kill tumor cells) activity of the samples being tested.
(§2) A colorimetric assay, using sulforhodamine B (SRB) reaction has been adapted to provide a quantitative measurement of cell growth and viability (following the technique described by Skehan et al. J. Natl. Cancer Inst. 1990, 82, 1107-1112).
(§3) This form of assay employs SBS-standard 96-well cell culture microplates (Faircloth et al. Methods in Cell Science, 1988, 11(4), 201-205; Mosmann et al, Journal of Immunological Methods, 1983, 65(1-2), 55-63). All the cell lines used in this study were obtained from the American Type Culture Collection (ATCC) and derive from different types of human cancer.
(§4) Cells were maintained in Dulbecco's Modified Eagle Medium (DMEM) supplemented with 10% Fetal Bovine Serum (FBS), 2 mM L-glutamine, 100 U/mL penicillin and 100 U/mL streptomycin at 37° C., 5% CO2 and 98% humidity. For the experiments, cells were harvested from subconfluent cultures using trypsinization and resuspended in fresh medium before counting and plating.
(§5) Cells were seeded in 96 well microtiter plates, at 5×10^3-7.5×10^3 cells per well in aliquots of 150 μL, and allowed to attach to the plate surface for 18 hours (overnight) in drug free medium. After that, one control (untreated) plate of each cell line was fixed (as described below) and used for time zero reference value. Culture plates were then treated with test compounds (50 μL aliquots of 4× stock solutions in complete culture medium plus 4% DMSO) using ten serial dilutions (concentrations ranging from 10 to 0.00262 μg/mL) and triplicate cultures (1% final concentration of DMSO). After 72 hours treatment, the antitumor effect was measured by using the SRB methodology: Briefly, cells were washed twice with PBS, fixed for 15 min in 1% glutaraldehyde solution at room temperature, rinsed twice in PBS, and stained in 0.4% SRB solution for 30 min at room temperature. Cells were then rinsed several times with 1% acetic acid solution and air-dried at room temperature. SRB was then extracted in 10 mM trizma base solution and the absorbance measured in an automated spectrophotometric plate reader at 490 nm. Effects on cell growth and survival were estimated by applying the NCI algorithm (Boyd M R and Paull K D. Drug Dev. Res. 1995, 34, 91-104).
(§6) Using the mean±SD of triplicate cultures, a dose-response curve was automatically generated using nonlinear regression analysis. Three reference parameters were calculated (NCI algorithm) by automatic interpolation: GI50=compound concentration that produces 50% cell growth inhibition, as compared to control cultures; TGI=compound concentration that produces total cell growth inhibition (cytostatic effect), as compared to control cultures, and LC50=compound concentration that produces 50% net cell killing (cytotoxic effect).

A further data set has as its system MDA-MB-231. Description: SRB colorimetric cytotoxicity assay, MDA-MB-231. The data set is classed as cell-based, human. Conditions: for CC50 / GI50: Homo sapiens; for CC50: MDA-MB-231, 72 h, read-out: LC50; for GI50 / TGI: MDA-MB-231, 72 hours treatment, SRB.
Description: as §1, §2, §3, §4, §5, §6

Another data set concerns A549. Description: SRB colorimetric cytotoxicity assay, A549. As to conditions: for TGI / GI50: A549, 72 hours treatment, SRB; for CC50 / GI50: Homo sapiens; for CC50: A549, 72 h, read-out: LC50. The data set is classed as cell-based, human.
Description: as §1, §2, §3, §4, §5, §6

A further data set deals with guinea pig atria. Conditions: cited from earlier work.
The subject of another data set is Na^+/Ca^2+ exchanger. As to conditions: cited from earlier work.
Data set [1] concerns CEM4 lymphocytic cell lines. Conditions: CEM4 lymphocytic cell lines infected with HIV-1 (Lai strain); cited from earlier work.
The subject of another data set is Candida albicans. Conditions: 100 μg/disc (6 mm); cited from earlier work.
A further data set concerns HIV-1 (Lai strain). Conditions: CEM4 cells; cited from earlier work.
Data set [2] deals with NSCLC-N6, E39, P388, and M96 tumor cells. As to conditions: range over NSCLC-N6, E39, P388 and M96 tumor cells; cited from earlier work.
The test system of the next data set is HIV-1. Conditions: cytoprotective activity against HIV-1 infection; cited from earlier work.
Data set [3] has as its system CEM-TART (CEM T-cells expressing both HIV-1 tat and rev). Conditions: CEM-TART cell line, cytotoxic activity; cited from earlier work.
Data set [4] concerns HCT-116 (human colon tumor). As to conditions: HCT-116 cell line, cytotoxic activity; cited from earlier work.
Another data set deals with HIV-1RF. Conditions: infection of human T-lymphoblastoid cells by HIV-1RF in vitro; cited from earlier work.
The subject of data set [5] is panel of human cancer cell lines. Conditions: mean over panel of human cancer cell lines; cited from earlier work.

Starred links: 1 amine or outer side, 2 acyl side, 3 side chain; linkers in the order of their positions; H or OH if unused. Positions of bridges follow the written chain, without caps; N, C: chain ends. Non-standard residues stand in square brackets, D forms with d. Residues, ends and D or L forms follow the SMILES beside them. ξ: configuration not given here. *: point of attachment. γ4hArg(2R,3R-(OH)2) = N=C(N)NCCC[C@H](N[*:1])[C@@H](O)[C@@H](O)C(=O)[*:2]; Heptanoyl(3R-OH,2R,4R,6-Me3) = CC(C)C[C@@H](C)[C@@H](O)[C@@H](C)C(=O)*; Gln(3S,4R-Me2) = C[C@H]([C@H](N)C(=O)O)[C@@H](C)C(N)=O; ξThr(3R)(O-yl) = C[C@@H](O[*:3])C(N[*:1])C(=O)[*:2]; dTyr(βR-OMe) = CO[C@H](c1ccc(O)cc1)[C@@H](N)C(=O)O; X6 = C[C@H](C(N[*:1])C(=O)[*:2])[C@@H](C)C(N)=O; X7 = CO[C@H](c1ccc(O)cc1)C(N[*:1])C(=O)[*:2]; dAsn(3S-OH) = NC(=O)[C@@H](O)[C@@H](N)C(=O)O; X5 = C[C@@H]1[C@@H](C(=O)*)NC(=O)[C@@H]1C; X4 = CC(C)(O)C(N[*:1])C(O)C(O)C(=O)[*:2]; ξGln(3,4-Me2) = CC(C(N)=O)C(C)C(N)C(=O)O; Abu(3S-NH2) = C[C@H](N)[C@H](N)C(=O)O; ξAsn(3ξ-OMe) = COC(C(N)=O)C(N)C(=O)O; d(aThr) = C[C@@H](O)[C@@H](N)C(=O)O; NMeQ = CN[C@@H](CCC(N)=O)C(=O)O; X1 = CC(C)CC(C)/C=C\C(O)CC(=O)*; ξThr(3R) = C[C@@H](O)C(N)C(=O)O; X3 = CCC(C)CC(C)C(O)C(C)C(=O)*; NMeL = CN[C@@H](CC(C)C)C(=O)O; X2 = CCCC(C)/C=C\C(O)CC(=O)*; Pip = O=C(O)[C@@H]1CCCCN1; NMeA = CN[C@@H](C)C(=O)O; dDap = NC[C@@H](N)C(=O)O; ξOrn = NCCCC(N)C(=O)O

The GI50 is the concentration giving 50% growth inhibition. A lower GI50 goes with greater sensitivity of the cells. For `COC[C@H]1NC(=O)[C@H](NC(=O)C(NC(=O)[C@@H](NC(=O)[C@H](NC(=O)[C@H](NC(=O)CC(O)/C=C\C(C)CC(C)C)[C@H](O)C(N)=O)[C@@H](C)O)[C@H](C)N)C(C)C(C)C(N)=O)[C@@H](C)OC(=O)[C@H](C)N(C)C(=O)[C@@H]([C@H](OC)c2ccc(O)cc2)NC(=O)[C@H](CCC(N)=O)N(C)C(=O)[C@H](CC(C)C)NC(=O)CNC1=O` (stereo partly drawn) [Stellatolide A] (X1-[dAsn(3S-OH)][d(aThr)][Abu(3S-NH2)][ξGln(3,4-Me2)][d(aThr)][dS](Me)GL[NMeQ][dTyr(βR-OMe)][NMeA]; ester 5-C), in the data set on HT29, the TGI is reported as 8.88E−07 Molar, the CC50 was 1330 nM and the GI50 is 603 nM. In addition, in the data set on MDA-MB-231, the CC50 is 761 nM, the concentration for 50% growth inhibition (GI50) worked out at 330 nM and the TGI was 4.95E−07 Molar. In the data set with A549, the TGI was 1.97E−07 Molar, the CC50 is 406 nM and the GI50 stood at 101 nM.
Regarding `CCCC(C)/C=C\C(O)CC(=O)N[C@@H](C(=O)N[C@@H](C(=O)N[C@H](C(=O)NC(C(=O)N[C@H]1C(=O)N[C@H](COC)C(=O)NCC(=O)N[C@@H](CC(C)C)C(=O)N(C)[C@@H](CCC(N)=O)C(=O)N[C@H]([C@H](OC)c2ccc(O)cc2)C(=O)N(C)[C@@H](C)C(=O)O[C@@H]1C)C(C)C(C)C(N)=O)[C@H](C)N)[C@@H](C)O)[C@H](O)C(N)=O` (stereo partly drawn) [Stellatolide B] (X2-[dAsn(3S-OH)][d(aThr)][Abu(3S-NH2)][ξGln(3,4-Me2)][d(aThr)][dS](Me)GL[NMeQ][dTyr(βR-OMe)][NMeA]; ester 5-C), the TGI in the data set on HT29 was found to be 1.60E−06 Molar; in the data set on MDA-MB-231, 1.09E−06 Molar; with A549, 1.09E−06 Molar. The CC50 is 2370 nM in the data set on HT29, 1730 nM in the data set on MDA-MB-231 and 1920 nM in the data set with A549. In addition, the GI50 in the data set with HT29 was determined as 1150 nM; in the data set with MDA-MB-231, 704 nM; in the data set on A549, 640 nM.
`CO[C@H](c1ccc(O)cc1)[C@H]1NC(=O)[C@H](CCC(N)=O)N(C)C(=O)[C@H](CC(C)C)NC(=O)[C@@H](CCCN=C(N)N)NC(=O)[C@H]([C@@H](C)O)NC(=O)[C@@H](NC(=O)[C@@H](NC(=O)[C@H](O)[C@H](O)[C@H](CCCN=C(N)N)NC(=O)[C@@H](C)NC(=O)[C@H](C)[C@H](O)[C@H](C)CC(C)C)[C@@H](C)[C@@H](C)C(N)=O)[C@@H](C)OC(=O)[C@H](C)N(C)C1=O` [callipeltin A] ({Heptanoyl(3R-OH,2R,4R,6-Me3)}-[dA][γ4hArg(2R,3R-(OH)2)][Gln(3S,4R-Me2)]TT[dR]L[NMeQ][dTyr(βR-OMe)][NMeA]; ester 4-C): the inotropic effect entry in the data set on guinea pig atria is given as “positive inotropic agent”. Also, the “inhibition of the Na+/Ca2+ exchanger” value in the data set with Na^+/Ca^2+ exchanger is “selective and powerful inhibitor”. For the same compound, in data set [1], the CD50 was 0.29 µg/mL. Moreover, in the data set with Candida albicans, the “inhibition of growth (zone)” value is reported as 30 mm. Further, the “selectivity index (SI ratio CD50/ED50)” value in the data set with HIV-1 (Lai strain) was 29.
Turning to `CO[C@H](c1ccc(O)cc1)[C@H]1NC(=O)[C@H](CCC(N)=O)N(C)C(=O)[C@H](CC(C)C)NC(=O)[C@@H](CCCNC(=N)N)NC(=O)[C@@H]([C@@H](C)O)NC(=O)[C@H](NC(=O)[C@H]2NC(=O)[C@H](C)[C@@H]2C)[C@@H](C)OC(=O)[C@H](C)N(C)C1=O` [callipeltin B] (X5-[d(aThr)][d(aThr)][dR]L[NMeQ][dTyr(βR-OMe)][NMeA]; ester 1-C), the IC50 in data set [2] is recorded as 1.3 to >30 μg/mL.
In general, EC50 refers to the concentration needed to bring the measured effect to its halfway point. Take `CO[C@H](c1ccc(O)cc1)C1NC(=O)[C@H](CCC(N)=O)N(C)C(=O)[C@H](CC(C)C)NC(=O)[C@@H](CCCNC(=N)N)NC(=O)C([C@@H](C)O)NC(=O)C(NC(=O)C(NC(=O)[C@H](O)[C@H](O)[C@H](CCCNC(=N)N)NC(=O)[C@H](CC(N)=O)NC(=O)[C@H](C)[C@H](O)[C@H](C)CC(C)C)[C@@H](C)[C@@H](C)C(N)=O)[C@@H](C)OC(=O)[C@@H]2CCCCN2C(=O)[C@@H](CC(N)=O)NC1=O` (stereo partly drawn) [neamphamide A] ({Heptanoyl(3R-OH,2R,4R,6-Me3)}-N[γ4hArg(2R,3R-(OH)2)][X6][ξThr(3R)(O-yl)][ξThr(3R)][dR]L[NMeQ][X7][dN][Pip]; ester 4-C): in the data set with HIV-1, the EC50 is ~28 nM.
On to `CCC(C)CC(C)C(O)C(C)C(=O)N[C@H](CN)C(=O)NC(C(O)C(O)C(=O)NC(C(=O)N[C@H]1C(=O)N[C@H]([C@@H](C)O)C(=O)NC(CCCN)C(=O)N[C@@H](CC(C)C)C(=O)N(C)[C@@H](CCC(N)=O)C(=O)NC(C(OC)C(N)=O)C(=O)N[C@H](CC(N)=O)C(=O)N(C)[C@@H](CC(C)C)C(=O)O[C@@H]1C)C(C)C(C)C(N)=O)C(C)(C)O` (stereo partly drawn) [theopapuamide] (X3-[dDap][X4][ξGln(3,4-Me2)][d(aThr)][d(aThr)][ξOrn]L[NMeQ][ξAsn(3ξ-OMe)][dN][NMeL]; ester 4-C), for which the EC50 is 500 nM in data set [3] and 900 nM in data set [4].
As for papuamide A, the EC50 entry in the data set on HIV-1RF was “approximately 4 ng/mL”. Also, the “mean IC50” value in data set [5] is 0.075 µg/mL.
With papuamide B, in the data set on HIV-1RF, the EC50 entry was “approximately 4 ng/mL”.
